Where “and” joins values, the source holds several entries; their conditions need not be identical. Equal entries are not always repeated. Where two headings read alike, the source gives them in different places.
Key:
[1] = Snapshot pharmacokinetic study in mice; format: in vivo, Balb/c mice
Procedure: Compound Se 2h was administered intravenously (5 mg/kg in 10% dimethyl sulfoxide, 30% propylene glycol, 30% PEG 400, and 30% of 10.0% Tween 80 in DI water) and by oral gavage (50 mg/kg in PEG 400 with 5% 1-methyl-2-pyrrolidone) in two female Balb/c mice (6 weeks old) for each group. Blood samples (∼25 μL) were collected with heparinized capillary tubes via the eye vein on mice anesthetized with isoflurane precompound administration and in the following times post administration: 30 min, 1 h, 2 h, 4 h. Samples were immediately centrifuged for plasma collection (supernatant). The animal experiment was approved by the UC San Diego IACUC committee under the protocol S14187 and follow all the ethical standards. The material was submitted for mass spectrometry quantification with provided known amounts spiked in naïve plasma for reference curve.

[2] = DPPH radical scavenging (antioxidant) assay; conditions: for Percentage of inhibited DPPH (2 h): mean ± SEM
Procedure: The antioxidant capacity of the selected Se compound was tested using the DPPH assay described by Astrain-Redin. The compound was tested at three different concentrations (0.06, 0.03, and 0.015 mg/mL) and we used two positive controls: ascorbic acid (ASC) and trolox (TRO). A solution of DPPH (2,2-diphenyl-1-picrylhydrazyl) in methanol (0.04 mg/mL, preserved in the dark) was prepared and 100 μL of this stock solution was added to 100 μL of tested compound solution. The color change, from purple (radical) to yellow (reduced), was measured at 517 nm at different time points (0, 5, 15, 30, 60, 90, and 120 min). All measurements were carried out in triplicate and recorded on a BioTek PowerWave XS spectrophotometer (Biotek). Data were collected using BioTek Gen5Microplate reader and Imager software (Agilent, version 3.12). Results are expressed as a percentage of inhibited DPPH ± standard error of the mean (SEM), calculated using the following formula %inhibitedDPPH=Acontrol−Asample/Acontrol×100 where A control refers to the absorbance of the negative control and A sample refers to the absorbance of the tested compound.

recombinant Cz (cruzain) = target: T1, recombinant Cz (cruzain) (Trypanosoma cruzi, UniProt P25779); experiment: biochemical; conditions: for SICz: ratio between IC50 hCatL and IC50 Cz
T1 construct: Cz was expressed and purified as described in da Silva et al; made in house
Summary of the method: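 Cruzain (1 nM) was preincubated 10 min with compound in 0.1 M sodium acetate pH 5.5, 1 mM DTT, 0.01% Triton X-100, then 2.5 μM Z-FR-AMC (final) was added. Fluorescence (360/460 nm) was read for 10 min at 25 °C and normalized to DMSO.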

[3] = Host cell cytotoxicity (C2C12 viability); format: cell-based, Mouse; conditions: mouse
Summary of the method: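 Mouse C2C12 myoblasts co-seeded with CAI/72 trypomastigotes (10:1 parasite:cell) on compound, 48 h at 37 °C, 5% CO2. DAPI-stained fixed cells imaged; parasites per host cell normalized to 40 μM BNZ and DMSO. EC50 and C2C12 viability from dose-response curves, three biological replicates in triplicate.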

T1 sequence (P25779 123-337 limits assumed): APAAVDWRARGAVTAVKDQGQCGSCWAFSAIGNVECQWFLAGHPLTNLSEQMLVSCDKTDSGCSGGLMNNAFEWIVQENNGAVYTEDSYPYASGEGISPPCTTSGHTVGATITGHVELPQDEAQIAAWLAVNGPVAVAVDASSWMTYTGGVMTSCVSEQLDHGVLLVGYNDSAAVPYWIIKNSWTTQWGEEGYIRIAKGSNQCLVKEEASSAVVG

C/C(=N\Nc1nc(C)c[se]1)c1cccc([N+](=O)[O-])c1.Cl [Se2h, (E)-4-Methyl-2-(2-(1-(3-nitrophenyl)ethylidene)hydrazineyl)-1,3-selenazole Hydrochloride]
acute toxicity in the PK study ([1]; 5 mg/kg intravenous and 50 mg/kg oral): no signs of acute toxicity | bioavailability ([1]; female, Balb/c, mouse, plasma, 50 mg/kg oral vs 5 mg/kg intravenous): 82% | Cmax at 0.5 h ([1]; female, Balb/c, mouse, plasma, oral dose 50 mg/kg): 2300 nM | half-life ([1]; female, Balb/c, mouse, plasma, other: intravenous and oral, 5 mg/kg intravenous and 50 mg/kg oral, read-out: half-life (T 1/2)): < 1 h | time of C max post administration ([1]; oral dose 50 mg/kg): 30 min | Percentage of inhibited DPPH (2 h) ([2]; 0,03 mg/ml): 78,00 ± 1,73% | Percentage of inhibited DPPH (2 h) ([2]; 0,06 mg/ml): 78,33 ± 1,76% | time to reach the plateau of the DPPH kinetic curve ([2]; 0.015 mg/mL): 30 min | Percentage of inhibited DPPH (2 h) ([2]; 0,015 mg/ml): 77,33 ± 0,88% | inhibition of DPPH after 2 h ([2]; all tested concentrations (0.06, 0.03 and 0.015 mg/mL)): more than 60% | Cz inhibition (%) (recombinant Cz (cruzain); 10 µM): 100.09% | IC50 (recombinant Cz (cruzain); IC50 Cz, single biological replicate (Figure 3), each of two biological replicates in triplicate): 3.4 nM and 14.5 nM | IC50 (recombinant Cz (cruzain); mean of two experiments in triplicate (n = 6) ± SEM, read-out: IC50 Cz): 8.99 ± 5.56 nM | SICz (recombinant Cz (cruzain)): 148.83 | SICz (recombinant Cz (cruzain); listed as Se 2h): 149 | inhibition at 10 µM (recombinant Cz (cruzain); read-out: Cz inhibition (%), 10 µM): > 85% | viability at 48 h, 10 µM ([3]; 10 µM, < 50% viability considered cytotoxic): > 100% | CC50 at 48 h ([3]; viability calculated at 10 μM): > 10000 nM
